Test results: US6638938B1, “Method for preventing tissue injury from hypoxia” (Cell Therapeutics, Inc., priority 1993, dated 2003)

Tested on: LPAAT (lysophosphatidic acyltransferase)
Assay: inhibition of LPAAT activity
Format: biochemical
Settings: extremely weak inhibitor; above clinically achievable concentrations

CC(=O)CCCCn1c(=O)c2c(ncn2C)n(C)c1=O [pentoxifylline, 1-(5-oxohexyl)3,7-dimethylxanthine, reference compound]
concentration required for inhibition of LPAAT activity: > 1 mM
